Patent US9856279B2 (AGIOS PHARMACEUTICALS, INC, priority 2011, dated 2018)
pIC50: −log10 of the molar value.

Columns and labels:
[1] = tested on: HT1080 cells; experiment: Cellular assay for IDH1m inhibitors: inhibition of 2-HG production (LC-MS, 48 hours) in HT1080 cells; format: cell-based; details: Homo sapiens, HT-1080; inhibition of 2-HG production, HT1080 cells; read-out: HT1080 IC50
In short: (§1)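 HT1080 or U87MG cells were seeded at 5000/well in DMEM with 10% FBS, incubated overnight, then treated with compounds (0.2% DMSO final) for 48 h. Medium 2-HG was quantified by LC-MS, and IC50 was taken as the concentration reducing 2-HG by 50% versus DMSO control.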

[2] = tested on: U87MG cells; experiment: Cellular assay for IDH1m inhibitors: inhibition of 2-HG production (LC-MS, 48 hours) in U87MG cells; format: cell-based; details: Homo sapiens, U-87 MG, inhibition of 2-HG production, U87R132H cells; read-out: U87R132H IC50
In short: as §1

[3] = molecular target: IDH1 R132H (Homo sapiens, UniProt O75874, R132H); experiment: Assay for IDH1 R132H inhibitors (NADPH/aKG, resazurin detection); format: biochemical; details: enzyme assay of Example 12; read-out: IDH1R132H IC50
IDH1 R132H, sequence (O75874 whole entry R132H): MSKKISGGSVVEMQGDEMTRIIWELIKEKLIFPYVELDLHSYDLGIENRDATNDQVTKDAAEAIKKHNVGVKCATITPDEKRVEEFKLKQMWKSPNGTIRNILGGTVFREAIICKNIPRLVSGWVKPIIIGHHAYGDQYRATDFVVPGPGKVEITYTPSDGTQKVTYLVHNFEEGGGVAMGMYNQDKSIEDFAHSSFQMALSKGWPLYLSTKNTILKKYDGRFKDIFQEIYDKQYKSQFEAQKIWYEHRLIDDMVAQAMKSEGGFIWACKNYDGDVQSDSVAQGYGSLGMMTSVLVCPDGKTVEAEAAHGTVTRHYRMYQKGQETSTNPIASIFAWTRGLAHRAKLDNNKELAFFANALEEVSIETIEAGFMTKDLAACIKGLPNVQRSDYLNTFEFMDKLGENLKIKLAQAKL
In short: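 Read-out is resorufin fluorescence (Ex544/Em590) 5 min after adding a 30 μM resazurin detection mix. Before that, mutant enzyme (0.2 μg/ml in its mix) ran 50 min at room temperature with compound, 8 uM NADPH and 2 mM aKG (mix levels) in Tris pH 7.5 with NaCl, MgCl2, BSA.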

Measured: pIC50

C=Cc1cnc2c(-c3c(C4CC4)nc(N4CCN(C(=O)CCOC)[C@H](C(C)C)C4)c(C#N)c3C)cccc2n1 [Compound 765, 6-cyclopropyl-2-((R)-3-isopropyl-4-(3-methoxypropanoyl)piperazin-1-yl)-4-methyl-5-(2-vinylquinoxalin-5-yl)nicotinonitrile]
> 6.30: all assays above

C=Cc1cnnc(-c2cc(C#N)c(N3CCN(C(=O)C[C@H]4CCO4)[C@H](C4CC4)C3)nc2C2CC2)c1 [Compound 766, 6-cyclopropyl-2-((R)-3-cyclopropyl-4-(2-((R)-oxetan-2-yl)acetyl)piperazin-1-yl)-5-(5-vinylpyridazin-3-yl)nicotinonitrile]
> 6.30: all assays above

C=Cc1cnnc(-c2c(C3CC3)nc(N3CCN(C(=O)CCO)[C@H](C4CC4)C3)c(C#N)c2C)c1 [Compound 767, (R)-6-cyclopropyl-2-(3-cyclopropyl-4-(3-hydroxypropanoyl)piperazin-1-yl)-4-methyl-5-(5-vinylpyridazin-3-yl)nicotinonitrile]
> 6.30: all assays above

C=Cc1cnnc(-c2c(C3CC3)nc(N3CCN(C(=O)C[C@H]4CCO4)[C@H](C4CC4)C3)c(C#N)c2C)c1 [Compound 768, 6-cyclopropyl-2-((R)-3-cyclopropyl-4-(2-((R)-oxetan-2-yl)acetyl)piperazin-1-yl)-4-methyl-5-(5-vinylpyridazin-3-yl)nicotinonitrile]
> 6.30: all assays above

C=Cc1cnnc(-c2c(C3CC3)nc(N3CCN(C(=O)/C=C/CCO)[C@H](C4CC4)C3)c(C#N)c2C)c1 [Compound 769, (R,E)-6-cyclopropyl-2-(3-cyclopropyl-4-(5-hydroxypent-2-enoyl)piperazin-1-yl)-4-methyl-5-(5-vinylpyridazin-3-yl)nicotinonitrile]
> 6.30: all assays above

C=Cc1cc(-c2c(C3CC3)nc(N3CCN(C(=O)CCCO)[C@H](C4CC4)C3)c(C#N)c2C)ccn1 [Compound 770, (R)-2-cyclopropyl-6-(3-cyclopropyl-4-(4-hydroxybutanoyl)piperazin-1-yl)-4-methyl-2′-vinyl-3,4′-bipyridine-5-carbonitrile]
> 6.30: all assays above

C=Cc1cnnc(-c2c(C3CC3)nc(N3CCN(C(=O)OC(C)(C)C)[C@H](C4CC4)C3)c(C#N)c2C)c1 [Compound 771, (R)-tert-butyl 4-(3-cyano-6-cyclopropyl-4-methyl-5-(5-vinylpyridazin-3-yl)pyridin-2-yl)-2-cyclopropylpiperazine-1-carboxylate]
> 6.30: all assays above

C=Cc1cc(Nc2cc(C#N)c(N3CCN(C(=O)C[C@@H]4CCO4)[C@H](C4CC4)C3)nc2C2CC2)ccn1 [Compound 774, 6-cyclopropyl-2-((R)-3-cyclopropyl-4-(2-((S)-oxetan-2-yl)acetyl)piperazin-1-yl)-5-((2-vinylpyridin-4-yl)amino)nicotinonitrile]
> 6.30: all assays above

C=Cc1cnnc(Nc2cc(C#N)c(N3CCN(C(=O)CCOC)[C@H](C4CC4)C3)nc2C2CC2)c1 [Compound 775, (R)-6-cyclopropyl-2-(3-cyclopropyl-4-(3-methoxypropanoyl)piperazin-1-yl)-5-((5-vinylpyridazin-3-yl)amino)nicotinonitrile]
> 6.30: all assays above

C=Cc1cc(-c2c(C3CC3)nc(N3CCN(C(=O)CCO)[C@H](C4CC4)C3)c(C#N)c2C)cnn1 [Compound 776, (R)-6-cyclopropyl-2-(3-cyclopropyl-4-(3-hydroxypropanoyl)piperazin-1-yl)-4-methyl-5-(6-vinylpyridazin-4-yl)nicotinonitrile]
> 6.30: all assays above

C=Cc1cc(Oc2c(C3CC3)nc(N3CCN(C(=O)CCO)[C@H](C4CC4)C3)c(C#N)c2C)ccn1 [Compound 777, (R)-6-cyclopropyl-2-(3-cyclopropyl-4-(3-hydroxypropanoyl)piperazin-1-yl)-4-methyl-5-((2-vinylpyridin-4-yl)oxy)nicotinonitrile]
> 6.30: all assays above

C=Cc1cc(-c2cc(C#N)c(N3CCN(C(=O)C[C@H]4CCO4)[C@H](C4CC4)C3)nc2C2CC2)c2cnn(C)c2n1 [Compound 778, 6-cyclopropyl-2-((R)-3-cyclopropyl-4-(2-((R)-oxetan-2-yl)acetyl)piperazin-1-yl)-5-(1-methyl-6-vinyl-1H-pyrazolo[3,4-b]pyridin-4-yl)nicotinonitrile]
> 6.30: all assays above

C=Cc1cc(-c2c(C3CC3)nc(N3CCN(C(=O)C[C@H]4CCO4)[C@H](C(C)C)C3)c(C#N)c2C)ccn1 [Compound 781, 2-cyclopropyl-6-((R)-3-isopropyl-4-(2-((R)-oxetan-2-yl)acetyl)piperazin-1-yl)-4-methyl-2′-vinyl-3,4′-bipyridine-5-carbonitrile]
> 6.30: all assays above

C=Cc1cc(-c2c(C3CC3)nc(N3CCN(C(=O)CC4CCCC4)[C@H](C4CC4)C3)c(C#N)c2C)ccn1 [Compound 782, (R)-6-(4-(2-cyclopentylacetyl)-3-cyclopropylpiperazin-1-yl)-2-cyclopropyl-4-methyl-2′-vinyl-3,4′-bipyridine-5-carbonitrile]
> 6.30: all assays above

C=Cc1cnnc(-c2c(C3CC3)nc(N3CCN(C(=O)CCO)[C@H](C(C)C)C3)c(C#N)c2C)c1 [Compound 784, (R)-6-cyclopropyl-2-(4-(3-hydroxypropanoyl)-3-isopropylpiperazin-1-yl)-4-methyl-5-(5-vinylpyridazin-3-yl)nicotinonitrile]
> 6.30: all assays above

C=Cc1cc(-c2c(C3CC3)nc(N3CCN(C(=O)C[C@H]4CCO4)[C@H](C4CC4)C3)c(C#N)c2C)cnn1 [Compound 785, 6-cyclopropyl-2-((R)-3-cyclopropyl-4-(2-((R)-oxetan-2-yl)acetyl)piperazin-1-yl)-4-methyl-5-(6-vinylpyridazin-4-yl)nicotinonitrile]
> 6.30: all assays above

C=Cc1cc(-c2c(C3CC3)nc(N3CCN(C(=O)C[C@H]4CCO4)[C@H](C(C)C)C3)c(C#N)c2C)cnn1 [Compound 786, 6-cyclopropyl-2-((R)-3-isopropyl-4-(2-((R)-oxetan-2-yl)acetyl)piperazin-1-yl)-4-methyl-5-(6-vinylpyridazin-4-yl)nicotinonitrile]
> 6.30: all assays above

C=Cc1cc(-c2c(C3CC3)nc(N3CCN(C(=O)CC4CC4)[C@H](C4CC4)C3)c(C#N)c2C)ccn1 [Compound 787, (R)-2-cyclopropyl-6-(3-cyclopropyl-4-(2-cyclopropylacetyl)piperazin-1-yl)-4-methyl-2′-vinyl-3,4′-bipyridine-5-carbonitrile]
> 6.30: all assays above
